Experimental data: patent publication US10005767B2, “Compositions and methods for inhibition of the JAK pathway” (Rigel Pharmaceuticals, Inc., priority 2009, dated 2018)
pIC50: −log10 of the molar value.

tested on: human primary T-cells, IL-2 stimulated proliferation (JAK-1 and JAK-3 dependent; reported as JAK3 activity); test: Human primary T-cell proliferation stimulated by IL-2 (Example 3); assay type: cell-based; details: Homo sapiens, T-cell, tested under conditions described in Example 3 (IL-2 stimulated human primary T-cell proliferation); read-out: ability to inhibit JAK3 activity, IC50 range (Table V)
From the text: The activity of the compounds described herein can further be characterized by assaying the effect of the 2,4-pyrimidinediamine compounds described herein on the proliferative response of primary human T-cells. In this assay, primary human T-cells derived from peripheral blood and pre-activated through stimulation of the T-cell receptor and CD28, proliferate in culture in response to the cytokine Interleukin-2 (IL-2). This proliferative response is dependent on the activation of JAK1 and JAK3 tyrosine kinases, which phosphorylate and activate the transcription factor Stat-5. The primary human T-cells are incubated with the 2,4-pyrimidinediamine compounds in the presence of IL-2 for 72 hours, and at the assay endpoint intracellular ATP concentrations are measured to assess cell viability. A reduction in cell proliferation compared to control conditions is indicative of inhibition of the JAK kinase pathway.
Primary human T-cells derived from peripheral blood and pre-activated through stimulation of the T-cell receptor and CD28, proliferate in vitro in response to the cytokine Interleukin-2 (IL-2). This proliferative response is dependent on the activation of JAK-1 and JAK-3 tyrosine kinases, which phosphorylate and activate the transcription factor Stat-5.
Human primary T cells were prepared as follows. […] The lymphocytes at the serum: ficoll interface were recovered and washed twice with 5 volumes of PBS. […] The primary T-cells were stimulated for 3-4 days, then transferred to a fresh flask and maintained in RPMI with 10% FBS and 40 U/mL IL-2.
The day prior to the assay set up, primary T-cells were centrifuged and resuspended in fresh RPMI with 10% FBS but without IL-2 and starved overnight. For the assay, the primary T-cells were centrifuged and resuspended Yssel's medium at 2×10^6 cells/mL. 50 μL of cell suspension containing 80 U/mL IL-2 was added to each well of a flat bottom 96 well black plate. For the unstimulated control, IL-2 was omitted from the last column on the plate. […] 50 μL of 2× compound was added per well in duplicate and the cells were allowed to proliferate for 72 hours at 37° C.
Proliferation was measured using CellTiter-Glo® Luminescent Cell Viability Assay (Promega), which determines the number of viable cells in culture based on quantitation of the ATP present, as an indicator of metabolically active cells. The substrate was thawed and allowed to come to ambient temperature. After mixing the Cell Titer-Glo reagent and diluent together, 100 μL was added to each well. The plates were mixed on an orbital shaker for two minutes to induce lysis and incubated at ambient temperature for an additional ten minutes to allow the signal to equilibrate.
The compound designations in Table V are consistent with those of Tables I-IV above.

`COCCOc1ccc(Nc2ncc(C)c(Nc3ccc4oc(=O)[nH]c4c3)n2)cc1C(F)(F)F` [Compound I-165, 5-{2-[4-(2-Methoxy-ethoxy)-3-trifluoromethyl-phenylamino]-5-methyl-pyrimidin-4-ylamino}-3H-benzooxazol-2-one] and `Cc1cnc(Nc2ccc(Cl)c(C(F)(F)F)c2)nc1Nc1ccc2oc(=O)[nH]c2c1` [Compound I-153, 5-[2-(4-Chloro-3-trifluoromethyl-phenylamino)-5-methyl-pyrimidin-4-ylamino]-3H-benzooxazol-2-one] cannot be ordered by pIC50: greater than 6.30 for the first, greater than 6.30 for the second.

`Cc1cnc(Nc2ccc(N3C[C@@H]4C[C@H]3CN4C)nc2)nc1Nc1ccc2oc(=O)[nH]c2c1` [II-31, N4-(benzoxazolin-2-on-5-yl)-N2-[2-((1S,4S)-5-methyl-2,5-diazabicyclo[2.2.1]heptan-2-yl)pyridin-5-yl]-5-methylpyrimidine-2,4-diamine] and `Cc1cnc(Nc2ccc(N3C[C@H]4C[C@@H]3CO4)nc2)nc1Nc1ccc2oc(=O)[nH]c2c1` [II-139, 5-methyl-N2-{2-[(1R,4R)-2-oxa-5-azabicyclo[2.2.1]heptan-5-yl]pyridin-5-yl}-N4-(2-oxo-2,3-dihydro-1,3-benzoxazol-5-yl)-2,4-pyrimidinediamine] cannot be ordered by pIC50: greater than 6.30 for the first, greater than 6.30 for the second.

`Cc1cnc(Nc2ccc3c(c2)NC(=O)CC3)nc1Nc1ccc2oc(=O)[nH]c2c1` [IV-24, 5-(5-methyl-2-(2-oxo-1,2,3,4-tetrahydroquinolin-7-ylamino)pyrimidin-4-ylamino)benzo[d]oxazol-2(3H)-one] and `Cc1cnc(Nc2ccc(O)cc2)nc1Nc1ccc2oc(=O)[nH]c2c1` [Compound I-425, 5-[2-(4-Hydroxy-phenylamino)-5-methyl-pyrimidin-4-ylamino]-3H-benzooxazol-2-one] cannot be ordered by pIC50: greater than 6.30 for the first, greater than 6.30 for the second.

`CNC(C)c1cc(Nc2ncc(C)c(Nc3ccc4oc(=O)[nH]c4c3)n2)cc(C(F)(F)F)c1` (centres unmarked) [Compound I-457, 5-(5-methyl-2-(3-(1-(methylamino)ethyl)-5-(trifluoromethyl)phenylamino)pyrimidin-4-ylamino)benzo[d]oxazol-2(3H)-one] and `Cc1cc(CF)cc(Nc2ncc(C)c(Nc3ccc4oc(=O)[nH]c4c3)n2)c1` [Compound I-238, 5-(2-(3-(fluoromethyl)-5-methylphenylamino)-5-methylpyrimidin-4-ylamino)benzo[d]oxazol-2(3H)-one] cannot be ordered by pIC50: greater than 6.30 for the first, greater than 6.30 for the second.

Compared with `Cc1cnc(Nc2ccc(-c3ccncc3)c(F)c2)nc1Nc1ccc2oc(=O)[nH]c2c1` [Compound I-484, 5-(2-(3-fluoro-4-(pyridin-4-yl)phenylamino)-5-methylpyrimidin-4-ylamino)benzo[d]oxazol-2(3H)-one], `Cc1ccc(F)c(Nc2ncc(C)c(Nc3ccc4oc(=O)[nH]c4c3)n2)c1` [Compound I-515, 5-(2-(2-fluoro-5-methylphenylamino)-5-methylpyrimidin-4-ylamino)benzo[d]oxazol-2(3H)-one] is higher in pIC50: 5.30 to 6.30 for the first, greater than 6.30 for the second. The second is the more potent here.

`COc1ccc(Nc2ncc(C)c(Nc3ccc4oc(=O)[nH]c4c3)n2)cc1OC(F)F` [Compound I-116, N2-(3-(difluoromethoxy)-4-methoxyphenyl)-N4-(benzo[d]oxazol-2(3H)-on-5-yl)-5-methylpyrimidine-2,4-diamine] and `COc1c(F)ccc(Nc2ncc(C)c(Nc3ccc4oc(=O)[nH]c4c3)n2)c1F` [Compound I-200, 5-[2-(2,4-Difluoro-3-methoxy-phenylamino)-5-methyl-pyrimidin-4-ylamino]-3H-benzooxazol-2-one] cannot be ordered by pIC50: greater than 6.30 for the first, greater than 6.30 for the second.

Compared with `Cc1cnc(Nc2ccc3c(c2)OC(C)(C)O3)nc1Nc1ccc2oc(=O)[nH]c2c1` [IV-17, 5-[2-(2,2-Dimethyl-benzo[1,3]dioxol-5-ylamino)-5-methyl-pyrimidin-4-ylamino]-3H-benzooxazol-2-one], `Cc1cnc(Nc2c(C)cccc2C)nc1Nc1ccc2oc(=O)[nH]c2c1` [IV-60, 5-(2-(2,6-dimethylphenylamino)-5-methylpyrimidin-4-ylamino)benzo[d]oxazol-2(3H)-one] is lower in pIC50: greater than 6.30 for the first, 5.00 to 5.30 for the second.

First: Cc1cnc(Nc2cc(F)cc(F)c2F)nc1Nc1ccc2oc(=O)[nH]c2c1 [Compound I-480, 5-[5-Methyl-2-(2,3,5-trifluoro-phenylamino)-pyrimidin-4-ylamino]-3H-benzooxazol-2-one]
Second: CC(=O)c1ccc(F)c(Nc2ncc(C)c(Nc3ccc4oc(=O)[nH]c4c3)n2)c1 [Compound I-519, 5-(2-(5-acetyl-2-fluorophenylamino)-5-methylpyrimidin-4-ylamino)benzo[d]oxazol-2(3H)-one]
The pIC50 of the first is lower: less than 5.00 for the first, greater than 6.30 for the second.

`COc1cc(Nc2ncc(C)c(Nc3cc(F)c4oc(=O)[nH]c4c3)n2)cc(C)c1OC` [Compound I-454, 5-(2-(3,4-dimethoxy-5-methylphenylamino)-5-methylpyrimidin-4-ylamino)-7-fluorobenzo[d]oxazol-2(3H)-one] and `Cc1cnc(Nc2cc(C)c(F)c(C)c2)nc1Nc1cc(F)c2oc(=O)[nH]c2c1` [Compound I-490, 7-fluoro-5-(2-(4-fluoro-3,5-dimethylphenylamino)-5-methylpyrimidin-4-ylamino)benzo[d]oxazol-2(3H)-one] cannot be ordered by pIC50: greater than 6.30 for the first, greater than 6.30 for the second.

Compound `Cc1cnc(Nc2ccc(C(=O)N3CCN(CC(C)C)CC3)nc2)nc1Nc1ccc2oc(=O)[nH]c2c1` [II-47, 5-{2-[6-(4-Isobutyl-piperazine-1-carbonyl)-pyridin-3-ylamino]-5-methyl-pyrimidin-4-ylamino}-3H-benzooxazol-2-one] has a pIC50 greater than 6.30.

same assay, conditions: tested under conditions described in Example 3 (IL-2 stimulated human primary T-cell proliferation); read-out: ability to inhibit JAK3 activity, IC50 range (Table V)

`Cc1ccc(Nc2ncc(C)c(Nc3ccc4oc(=O)[nH]c4c3)n2)cc1S(=O)(=O)NC(C)(C)C` [Compound I-113, N4-(benzoxazolin-2-on-5-yl)-N2-[4-methyl-3-N-(t-butyl)aminosulfonylphenyl]-5-methylpyrimidine-2,4-diamine] and `Cc1ccc(Nc2ncc(C)c(Nc3ccc4[nH]c(=O)oc4c3)n2)cc1NS(C)(=O)=O` [Compound I-104, N2-((3-methylsulfonylamino-4-methyl)phenyl)-N4-(2-oxo-2,3-dihydrobenzo[d]oxazol-6-yl)-5-methylpyrimidine-2,4-diamine] cannot be ordered by pIC50: greater than 6.30 for the first, greater than 6.30 for the second.

`Cc1cnc(Nc2cccc(S(N)(=O)=O)c2)nc1Nc1ccc2oc(=O)[nH]c2c1` [Compound I-14] and `Cc1cnc(Nc2ccc(F)c(C(F)(F)F)c2)nc1Nc1ccc2oc(=O)[nH]c2c1` [Compound I-361, N2-(4-fluoro-3-trifluoromethyl)phenyl-5-methyl-N4-(2-oxo-2,3-dihydro-1,3-benzoxazol-5-yl)-2,4-pyrimidinediamine] cannot be ordered by pIC50: greater than 6.30 for the first, greater than 6.30 for the second.

`Cc1cnc(Nc2ccc(SC(F)(F)F)cc2)nc1Nc1ccc2oc(=O)[nH]c2c1` [Compound I-367, N2-(4-trifluoromethylthio)phenyl-5-methyl-N4-(2-oxo-2,3-dihydro-1,3-benzoxazol-5-yl)-2,4-pyrimidinediamine] and `Cc1cnc(Nc2ccc(N3CCC(F)(F)CC3)cc2)nc1Nc1ccc2oc(=O)[nH]c2c1` [Compound I-279, N2-[4-(4,4-difluoropiperidinyl)]phenyl-5-methyl-N4-(2-oxo-2,3-dihydro-1,3-benzoxazol-5-yl)-2,4-pyrimidinediamine] cannot be ordered by pIC50: greater than 6.30 for the first, greater than 6.30 for the second.

Compared with `Cn1c(=O)oc2cc(Nc3nc(Nc4ccc(F)c(NS(C)(=O)=O)c4)ncc3F)ccc21` [Compound I-92, N2-((4-fluoro-3-methylsulfonylamino)phenyl)-N4-(3-methyl-2-oxo-2,3-dihydrobenzo[d]oxazol-6-yl)-5-fluoropyrimidine-2,4-diamine], `Cc1cnc(Nc2cc(F)c(OC(F)F)c(F)c2)nc1Nc1ccc2oc(=O)[nH]c2c1` [Compound I-388, N2-(3,5-difluoro-4-difluoromethoxy)phenyl-5-methyl-N4-(2-oxo-2,3-dihydro-1,3-benzoxazol-5-yl)-2,4-pyrimidinediamine] is higher in pIC50: less than 5.00 for the first, greater than 6.30 for the second.

`Cc1cnc(Nc2ccc(NC(=O)c3ccccc3)cc2)nc1Nc1ccc2oc(=O)[nH]c2c1` [Compound I-308, 5-methyl-N4-(2-oxo-2,3-dihydro-1,3-benzoxazol-5-yl)-N2-(4-phenylcarbonylamino)phenyl-2,4-pyrimidinediamine] and `Cc1cnc(Nc2cccc(N3CCOCC3)c2)nc1Nc1ccc2[nH]c(=O)oc2c1` [Compound I-48, N4-(benzo[d]oxazol-2(3H)-on-6-yl)-N2-((3-morpholinyl)phenyl)-5-methylpyrimidine-2,4-diamine] cannot be ordered by pIC50: greater than 6.30 for the first, greater than 6.30 for the second.
